# In article PMC12521730, “Quantitative dual-isotope preclinical SPECT/CT imaging and biodistribution of the mercury-197m/g theranostic pair with [^197m/gHg]HgCl2 and a [^197m/gHg]Hg-tetrathiol complex as a platform for radiopharmaceutical development” (EJNMMI Radiopharmacy and Chemistry, 2025):
# Tests used:
# [1] = Human serum stability assay (SDS-PAGE); type: in vitro ADME; conditions: 37 °C, 72 h
# Description: To the [^197m/gHg][Hg(Tetrathiol)]^2− (prepared as described above) or radiolabeling controls (DMSO instead of the ligand) was diluted in human serum (1:1 v/v dilution), and the solutions were incubated at 37 °C over 72 h. The metal-complex stabilities were monitored over 72 h using SDS-PAGE following our previously reported protocols (Randhawa et al. [2023]; Tosato et al. [2024]). At each time point, an aliquot (10 μL) of the reaction mixture was mixed with Laemmli sample buffer (10 μL) and was directly loaded onto the SDS-PAGE gel. The SDS-PAGE was run at ambient temperature and 150 V until the dye front reached the resolving gel (1 h). Following electrophoresis, the gel was scanned with the radio-TLC scanner to determine the percentage of intact complex. The same protocol was used with free [^197m/gHg]Hg^2+ and the ^197m/gHg^2+-complexes diluted in phosphate-buffered saline (PBS) (5 µL; 1:1 v/v dilution) to assess their electrophoretic mobility.
# [2] = Stable metal competition assay, biologically relevant metal cocktail; type: physicochemical; conditions: tenfold excess to chelator, 113 h, ambient temperature
# Description: (§1) To the [^197m/gHg][Hg(Tetrathiol)]^2− (prepared as described above) or radiolabeling controls (DMSO instead of the ligand) 10 µL of a 10 mM metal cocktail (solution of biologically relevant metals, ZnCl2, FeCl3, CuCl2, MgCl2 and CoCl2), 10 mM AuCl3 or 10 mM of HgCl2, in water was added. The final solution contained tenfold excess of stable metal to the chelators and 10^6-fold excess of the stable metal to ^197m/gHg in solution. The mixtures were incubated at RT over 113 h. The proportion of intact radiolabeled complex was monitored over the course of 113 h using iTLC-SG and DMSA solution (50 mM, pH 5) as the mobile phase. Under these conditions, uncomplexed ^197m/gHg^2+ resulting from stable metal transchelation traveled to the solvent front (Rf = 1) while intact [^197m/gHg][Hg(Tetrathiol)]^2− remained at the baseline (Rf = 0).
# [3] = Stable metal competition assay, HgCl2; type: physicochemical; conditions: tenfold excess HgCl2
# Description: as §1
# [4] = LogD7.4 shake-flask measurement (n-octanol/PBS); type: physicochemical; conditions: n-octanol/PBS pH 7.4, shake-flask
# Description: Aliquots of [^197m/gHg][Hg(Tetrathiol)]^2− (prepared as described above) (10 μL) were added to a biphasic mixture of n-octanol (700 μL) and phosphate buffered saline (PBS, 700 μL, pH 7.4). The mixture was vortexed for 2 min at ambient temperature and then separated via centrifugation (10 min, 3000 rpm). Aliquots of n-octanol (100 μL) and PBS (100 μL) were collected, and the activity in each portion was determined via gamma spectroscopy. LogD7.4 is defined as log10[(activity in n-octanol phase)/(activity in buffer phase)].
# [5] = Stable metal competition assay, AuCl3; type: physicochemical; conditions: tenfold excess to chelator, 113 h, ambient temperature
# Description: as §1
# [6] = L-Glutathione (GSH) competition assay; type: physicochemical; conditions: 37 °C, 72 h, 2.12 mM GSH
# Description: GSH competition assay procedures closely followed those previously developed by our group (Randhawa et al. [2023]). To the [^197m/gHg][Hg(Tetrathiol)]^2− (prepared as described above) or radiolabeling controls (DMSO instead of the ligand) was added to a 50 mM L-glutathione (GSH) solution (1:22 v/v GSH:reaction solution dilution), and the mixtures were incubated at 37 °C over 72 h. The final GSH concentration was chosen to mimic in vivo conditions within cells (2.12 mM) (Dickinson and Forman [2002]). The proportion of intact radiolabeled complex was monitored over the course of 72 h using iTLC-SG and L-glutathione (50 mM) as the mobile phase. Under these conditions, uncomplexed ^197m/gHg^2+ resulting from GSH transchelation traveled to the solvent front (Rf = 1) while intact [^197m/gHg][Hg(Tetrathiol)]^2− remained at the baseline (Rf = 0).
compound,measurement,setting,value
O=C(CC[S-])OCC(COC(=O)CC[S-])(COC(=O)CC[S-])COC(=O)CC[S-].[Hg+2] [[^197m/gHg]Hg-Tetrathiol],intact complex in human serum,[1],86 ± 1%
same,demetallation against mixture of biologically relevant metals,[2],no signs of demetallation
same,intact complex in competition with HgCl2,[3]; 113 h,18 ± 10%
same,intact complex in competition with HgCl2,[3]; within 2 h,71 ± 10%
same,logD7.4,[4],0.35 ± 0.1
same,demetallation against AuCl3,[5],no signs of demetallation
same,stability when challenged against GSH,[6],no evidence of decomposition or transchelation
